Results taken from patent US20160272617A1, “SUBSTITUTED PHENYLALANINE DERIVATIVES” (BAYER PHARMA AKTIENGESELLSCHAFT, priority 2013, published 2016).
pIC50: −log10 of the molar value. Where a name gives a salt, the structure may show the parent alone.

How the values were obtained:
[1] = test system: human and animal plasma; experiment: Determination of anticoagulatory activity: activated partial thromboplastin time (aPTT) in plasma; details: concentration of test substance which brings about a 1.5-fold extension of the aPTT; plasma species not given
Description: The anticoagulatory activity of the test substances is determined in vitro in human and animal plasma (for example mouse, rat, rabbit, pig and dog plasma). To this end, blood is drawn off in a mixing ratio of sodium citrate/blood of 1:9 using a 0.11 molar sodium citrate solution as receiver. Immediately after the blood has been drawn off, it is mixed thoroughly and centrifuged at about 4000 g for 15 minutes. The supernatant is pipetted off.
The activated partial thromboolastin time (aPTT) is determined in the presence of varying concentrations of test substance or the corresponding solvent using a commercial test kit (C. K. Prest from Diagnostica Stago). The test compounds are incubated with the plasma and the PTT reagent (cephalin, kaolin) at 37° C. for 3 minutes. Coagulation is then started by addition of a 25 mM aqueous calcium chloride solution, and the time when coagulation occurs is determined. The concentration of test substance which brings about a 1.5-fold extension of the aPTT is determined.

[2] = target: T1, human factor XIa (Homo sapiens, UniProt P03951); experiment: Measurement of FXIa inhibition (fluorogenic peptide substrate Boc-Glu(OBzl)-Ala-Arg-AMC); format: biochemical; details: factor XIa from Kordia, 15 min preincubation, 30 min at 22° C., fluorescence
T1 construct: purchased Kordia
T1 sequence (P03951 388-625 limits assumed): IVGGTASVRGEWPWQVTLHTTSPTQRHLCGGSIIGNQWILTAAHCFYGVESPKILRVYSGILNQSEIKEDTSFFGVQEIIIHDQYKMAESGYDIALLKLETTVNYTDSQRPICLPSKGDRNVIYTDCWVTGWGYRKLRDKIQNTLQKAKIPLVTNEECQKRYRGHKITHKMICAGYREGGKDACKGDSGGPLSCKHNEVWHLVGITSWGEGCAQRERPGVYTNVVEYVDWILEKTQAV
T1 sequence (P03951 19-387 partner limits assumed): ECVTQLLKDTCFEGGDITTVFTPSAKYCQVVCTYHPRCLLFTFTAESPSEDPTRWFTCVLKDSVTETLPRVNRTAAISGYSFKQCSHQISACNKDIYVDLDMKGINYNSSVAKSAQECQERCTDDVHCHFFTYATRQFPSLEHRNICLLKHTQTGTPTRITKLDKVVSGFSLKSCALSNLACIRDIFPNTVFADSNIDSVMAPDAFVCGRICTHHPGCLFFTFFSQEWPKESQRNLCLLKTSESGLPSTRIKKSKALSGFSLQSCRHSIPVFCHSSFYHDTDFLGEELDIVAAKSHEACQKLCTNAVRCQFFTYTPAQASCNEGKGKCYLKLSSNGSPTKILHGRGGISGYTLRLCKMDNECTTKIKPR
Description: The factor XIa inhibition of the inventive substances is determined using a biochemical test system which utilizes the reaction of a peptidic factor XIa substrate to determine the enzymatic activity of human factor XIa. Here, factor XIa cleaves from the peptic factor XIa substrate the C-terminal aminomethylcoumarin (AMC), the fluorescence of which is measured. The determinations are carried out in microtitre plates.
Test substances are dissolved in dimethyl sulphoxide and serially diluted in dimethyl sulphoxide (3000 μM to 0.0078 μM; resulting final concentrations in the test: 50 μM to 0.00013 μM). In each case 1 μl of the diluted substance solutions is placed into the wells of white microtitre plates from Greiner (384 wells). Subsequently, the following are added successively: 20 μl of assay buffer (50 mmol/l Tris buffer pH 7.4; 100 mmol/l sodium chloride; 5 mmol/l calcium chloride; 0.1% bovine serum albumin) and 20 μl of factor XIa from Kordia (0.45 nM in assay buffer). After 15 min of incubation, the enzyme reaction is started by addition of 20 μl of the factor XIa substrate Boc-Glu(OBzl)-Ala-Arg-AMC dissolved in assay buffer (10 μM in assay buffer) from Bachem, the mixture is incubated at room temperature (22° C.) for 30 min and fluorescence is then measured (excitation: 360 nm, emission: 460 nm). The measured emissions of the test mixtures with test substance are compared to those of control mixtures without test substance (only dimethyl sulphoxide instead of test substance in dimethyl sulphoxide), and the IC50 values are calculated from the concentration/activity relationships.

SMILES	aPTT [1]	pIC50 [2]
Cc1cc(C(=O)N[C@H]2CC[C@H](N)CC2)ccc1-c1ccc(C[C@H](NC(=O)[C@H]2CC[C@H](CN)CC2)C(=O)Nc2ccc(-c3nn[nH]n3)cc2)cc1 [Example 34, N-(trans-4-Aminocyclohexyl)-4′-[(2S)-2-({[trans-4-(aminomethyl)cyclohexyl]carbonyl}amino)-3-oxo-3-{[4-(2H-tetrazol-5-yl)phenyl]amino}propyl]-2-methylbiphenyl-4-carboxamide hydrochloride]	0.11 µmol/L	8.85
Cc1cc(C(=O)NC2CCCNC2=O)ccc1-c1ccc(C[C@H](NC(=O)[C@H]2CC[C@H](CN)CC2)C(=O)Nc2ccc3cn[nH]c3c2)cc1 (stereo partly drawn) [Example 143, 4′-[(2S)-2-({[trans-4-(Aminomethyl)cyclohexyl]carbonyl}amino)-3-(1H-indazol-6-ylamino)-3-oxopropyl]-2-methyl-N-(2-oxopiperidin-3-yl)biphenyl-4-carboxamide hydrochloride]	0.07 µmol/L	8.64
Cc1cc(C(=O)NC2CCNCC2)ccc1-c1ccc(C[C@H](NC(=O)[C@H]2CC[C@H](CN)CC2)C(=O)Nc2ccc(-c3nnc(CCC(=O)O)[nH]3)cc2)cc1 [Example 152, 3-{(5-[4-({(2S)-2-({[trans-4-(Aminomethyl)cyclohexyl]carbonyl}amino)-3-[2′-methyl-4′-(piperidin-4-ylcarbamoyl)biphenyl-4-yl]propanoyl}amino)phenyl]-4H-1,2,4-triazol-3-yl}propanoic acid hydrochloride]	0.7 µmol/L	8.28
Cc1cc(C(=O)NC2CCNCC2(C)C)ccc1-c1ccc(C[C@H](NC(=O)[C@H]2CC[C@H](CN)CC2)C(=O)Nc2ccc(-c3nnc(C(F)(F)C(F)(F)C(=O)O)[nH]3)cc2)cc1 (stereo partly drawn) [Example 107, 3-[5-(4-{[(2S)-2-({[trans-4-(Aminomethyl)cyclohexyl]carbonyl}amino)-3-{4′-[(3,3-dimethylpiperidin-4-yl)carbamoyl]-2′-methylbiphenyl-4-yl}propanoyl]amino}phenyl)-4H-1,2,4-triazol-3-yl]-2,2,3,3-tetrafluoropropanoic acid hydrochloride]	0.1 µmol/L	8.85
CCN(CC)CCNC(=O)c1ccc(-c2ccc(C[C@H](NC(=O)[C@H]3CC[C@H](CN)CC3)C(=O)Nc3ccc(-c4nn[nH]n4)cc3)cc2)cc1 [Example 38, 4′-[(2S)-2-({[trans-4-(Aminomethyl)cyclohexyl]carbonyl}amino)-3-oxo-3-{[4-(2H-tetrazol-5-yl)phenyl]amino}propyl]-N-{2-[diethylamino]ethyl}biphenyl-4-carboxamide hydrochloride]	0.42 µmol/L	7.85
Cc1cc(C(=O)NC2CCNCC2)ccc1-c1ccc(C[C@H](NC(=O)[C@H]2CC[C@H](CN)CC2)C(=O)Nc2ccc(-c3nn[nH]n3)cc2)cc1F [Example 61, 4′-[(2S)-2-({[trans-4-(Aminomethyl)cyclohexyl]carbonyl}amino)-3-oxo-3-{[4-(2H-tetrazol-5-yl)phenyl]amino}propyl]-2′-fluoro-2-methyl-N-(piperidin-4-yl)biphenyl-4-carboxamide hydrochloride]	0.07 µmol/L	8.49
Cc1cc(C(=O)N[C@H]2CC[C@H](O)CC2)ccc1-c1ccc(CC(NC(=O)[C@H]2CC[C@H](CN)CC2)C(=O)Nc2ccc(-c3nnc(C(F)(F)C(F)(F)C(=O)O)[nH]3)cc2)cc1 (mixture of isomers) [Example 131, 3-[5-(4-{[2-({[trans-4-(Aminomethyl)cyclohexyl]carbonyl}amino)-3-{4′-[(trans-4-hydroxycyclohexyl)carbamoyl]-2′-methylbiphenyl-4-yl}propanoyl]amino}phenyl)-4H-1,2,4-triazol-3-yl]-2,2,3,3-tetrafluoropropanoic acid (enantiomer mixture)]	0.2 µmol/L	
